Assays:
[1] = Particle size, PdI and zeta potential of mRNA-encapsulating LNPs (dynamic light scattering); format: physicochemical; conditions: mRNA-encapsulating LNP, cationic lipid:DOPC:Chol=55:5:40 + about 1 mol DMG-PEG2k; for PdI / particle size: dynamic light scattering; for zeta potential: physiological pH
Outline: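 LNPs were made from cationic lipid:DOPC:Chol at 55:5:40 molar ratio plus about 1 mol DMG-PEG2k, microfluidically mixed with mRNA in malate buffer (20 mM, pH 3.0, 30 mM NaCl). They were ultrafiltered into PBS at 2 mM lipid. Size, PdI and zeta potential were measured by dynamic light scattering.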

[2] = Measurement of Liposomal pKa of LNP (TNS fluorescence); format: physicochemical; conditions: LNP without nucleic acid, cationic lipid:DOPC:Chol=52.5:7.5:40 + about 1.5 mol DMG-PEG2k; pH at which relative TNS fluorescence intensity was 50%
Outline: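 Nucleic-acid-free LNPs (cationic lipid:DOPC:Chol 52.5:7.5:40, ~1.5 mol DMG-PEG2k) prepared by microfluidic mixing, diluted to 0.5 mM lipid, mixed with TNS in 150 mM NaCl buffers spanning pH 3.0–10.0. Fluorescence at ex 321/em 447 nm normalised 0–100% per LNP; pKa is the pH at 50%.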

[3] = test system: BALB/c mouse; experiment: Evaluation of in vivo gene expression (luciferase mRNA-encapsulating LNP, IVIS of isolated organs); conditions: for relative value based on Comparative Example (amount of luminescence in spleen): relative to O-Ph-P4C2 LNP = 1.00; for amount of luminescence in each organ: heart / amount of luminescence in each organ: kidney / amount of luminescence in each organ: liver / amount of luminescence in each organ: lung / amount of luminescence in each organ: spleen: tail vein, mRNA 0.05 mg/kg, 4.5 hr + 15 min after administration; for amount of luminescence in each organ: spleen: spleen (Table 7); for gene expression activity in the spleen compared to Comparative Example: result in words
Outline: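 Luciferase mRNA in LNP (cationic lipid:DOPC:Chol:DMG-PEG2k = 55:5:40:1 molar) given by tail vein to male 5-week-old BALB/c mice at 0.05 mg mRNA/kg. At 4.5 hr, D-luciferin (3 mg/mouse) was given intraperitoneally; 15 min later liver, spleen, kidney, heart and lung were excised and luminescence (photons/sec) quantified by IVIS imaging.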

[4] = test system: HeLa cells; experiment: Evaluation of in vitro gene expression in HeLa cell (luciferase mRNA-encapsulating LNP); format: cell-based, human; conditions: for cumulative luciferase luminescence intensity over 24 hr: luciferase mRNA 0.4 μg per dish, LNP cationic lipid:DOPC:Chol:DMG-PEG2k=55:5:40:1; for gene expression activity compared to Comparative Example: result in words
Outline: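 LNP (cationic lipid:DOPC:Chol:DMG-PEG2k=55:5:40:1) carrying luciferase mRNA, 0.4 μg mRNA per 3.5 cm dish, added to HeLa cells in D-MEM with 0.1 mM D-luciferin. Luminescence read 2 min every hour in an incubator luminometer; value is cumulative luminescence over 24 hr.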

Row | SMILES | PdI [1] | particle size [1] [nm] | zeta potential [1] [mV] | pKa [2] | relative value based on Comparative Example (amount of luminescence in spleen) [3] | amount of luminescence in each organ: heart [3] [photons/sec] | amount of luminescence in each organ: kidney [3] [photons/sec] | amount of luminescence in each organ: liver [3] [photons/sec] | amount of luminescence in each organ: lung [3] [photons/sec] | amount of luminescence in each organ: spleen [3] [photons/sec] | cumulative luciferase luminescence intensity over 24 hr [4] [RLU] | gene expression activity compared to Comparative Example [4] | gene expression activity in the spleen compared to Comparative Example [3]
1 | CCCCCCCCCCCCCCCCC(CCCCCCCCCCCCCCCC)C(=O)Oc1ccc(CC(=O)OCCSSCCOC(=O)NCCN(C(C)C)C(C)C)cc1 [Example 28] | 0.070 | 66 | −1.4 | 6.7 | 0.16 | 6.88E+05 | 6.48E+05 | 9.90E+07 | 9.12E+05 | 1.68E+06 | 4.57E+07 | superior gene expression activity | 
2 | CCCCCCCCCCCCCCCCC(CCCCCCCCCCCCCCCC)C(=O)Oc1ccc(CC(=O)OCCSSCCOC(=O)N(C)CCN(CC)CC)cc1 [Example 29] | 0.080 | 59 | 1.2 | 6.7 | 0.29 | 7.27E+05 | 6.29E+05 | 8.05E+07 | 7.49E+05 | 3.16E+06 | 1.75E+07 | superior gene expression activity | 
3 | CCCCCCCCCCCCCCCCC(CCCCCCCCCCCCCCCC)C(=O)Oc1ccc(CC(=O)OCCSSCCOC(=O)OCCN(C)C)cc1 [Example 30] | 0.080 | 59 | 2.3 | 6.4 | 0.12 | 6.17E+05 | 3.80E+05 | 1.98E+07 | 5.26E+05 | 1.24E+06 | 1.35E+07 | superior gene expression activity | 
4 | CCCCCCCCCCCCCC(=O)OCC(C)(COC(=O)CCCCCCCCCCCCC)C(=O)Oc1ccc(CC(=O)OCCSSCCOC(=O)NCCN(CC)CC)cc1 [Example 31] | 0.072 | 59 | 4.1 | 7.6 | 1.74 | 7.26E+05 | 5.53E+05 | 2.62E+07 | 9.16E+05 | 1.88E+07 | 1.58E+08 | superior gene expression activity | superior gene expression activity
5 | CCCCCCCC/C=C\CCCCCCCC(=O)OCC(C)(COC(=O)CCCCCCC/C=C\CCCCCCCC)C(=O)Oc1ccc(CC(=O)OCCSSCCOC(=O)NCCN(CC)CC)cc1 [Example 34] | 0.060 | 63 | 0.4 | 7.2 | 1.27 | 6.83E+05 | 5.04E+05 | 2.52E+07 | 6.02E+05 | 1.37E+07 | 1.08E+08 | superior gene expression activity | superior gene expression activity
6 | CCCCC/C=C\C/C=C\CCCCCCCC(=O)OCC(C)(COC(=O)CCCCCCC/C=C\C/C=C\CCCCC)C(=O)Oc1ccc(CC(=O)OCCSSCCOC(=O)NCCN(CC)CC)cc1 [Example 35] | 0.068 | 70 | −4.0 | 6.8 | 0.37 | 6.31E+05 | 3.94E+05 | 1.35E+07 | 4.65E+05 | 4.03E+06 | 6.34E+07 | superior gene expression activity | 
7 | CCCCCCCC/C=C\CCCCCCCC(=O)OCC(C)(COC(=O)CCCCCCC/C=C\CCCCCCCC)C(=O)Oc1ccc(CC(=O)OCCSSCCOC(=O)NCCN(C)CCO)cc1 [Example 36] | 0.090 | 92 | −2.5 | 7.3 | 0.19 | 9.67E+05 | 6.33E+05 | 2.33E+06 | 8.67E+05 | 2.00E+06 | 7.66E+07 | superior gene expression activity | 

From US20250213478A1, “CATIONIC LIPID HAVING DISULFIDE BOND, LIPID MEMBRANE STRUCTURE INCLUDING SAME, NUCLEIC ACID INTRODUCTION AGENT AND PHARMACEUTICAL COMPOSITION CONTAINING ANY ONE OF SAME, METHOD FOR INTRODUCING NUCLEIC ACID INTO CELL OR TARGET CELL, AND METHOD FOR PRODUCING CELLULAR PHARMACEUTICAL” (NOF Corporation, priority 2022, published 2025)
